Experiments:
[1] = target: T1, HIV-1 Nucleocapsid Protein (NCp7) (Human immunodeficiency virus type 1 group M subtype B, UniProt P12493); assay: Fluorescence-based (TSQ) assay of zinc ejection from purified HIV-1 NCp7; type: biochemical; conditions: 10 μM compound, 2.8 μM NCp7, 47 μM TSQ, pH 7.4, 26° C., 90 minutes
T1 construct: The NCp7 protein containing 2 Zn-fingers and 2 Zn ions
Excerpt: The compounds of the present invention cause the extrusion of zinc from the nucleocapsid protein (NCp7) of HIV-1. The NC protein is highly conserved among all retroviruses (South T., Blake P., et al., Biochemistry, 1990;;29:7786) and is essential for viral infectivity (Aldovini A. and Young R., J. Virology, 1990;64:1920 and Gorelick R., Nigida S., et al., J. Virology, 1990;64:3207). The zinc is normally held in NC proteins by 1 or 2 zinc fingers. In the case of HIV-1, 2 zinc fingers are present (Summers M., South T., et al., Biochemistry, 1990;29:329) and are involved specifically with the PSI site on viral RNA which controls the packaging of viral RNA. Interference of this packaging causes the formation of non-infectious virions (Dannull J., Surovoy A., et al., EMBO, 1994;13:1525). It has previously been shown that compounds that cause zinc extrusion have potent anti-HIV activity in multiple cell lines and against all retroviruses (Rice W., Schaeffer C., et al., Nature, 1993;361:473).
A fluorescence-based assay has been developed to monitor the ejection of zinc from purified HIV-1 NCp7. The fluorophore, N-(6-methoxy-8-quinolyl)-p-toluenesulfonamide (TSQ), has an increased fluorescent signal upon bonding zinc ion in solution. The NCp7 protein containing 2 Zn-fingers and 2 Zn ions is incubated with drug causing the extrusion of Zn ions. The released Zn is then sequestered by the TSQ and the increased fluorescence monitored relative to control. The assay was performed as follows: 10 μM compound was added to 2.8 μM NCp7 and 47 μM TSQ in 20 μL of pH 7.4 buffer at 26° C. for 90 minutes. Fluorescence (excitation 355 nm emission 400 nm) was monitored versus time. Controls were the NCp7 under assay conditions without drug, and apo NCp7 (no Zn) with drug. The % Zn extrusion was calculated based on the actual fluorescence measured divided by the fluorescence of all theoretical Zn extruded (5.6 μM)×100.
Table 1 below presents the results of testing several of the invention compounds in zinc extrusion assay described above. The compounds were evaluated for their ability to cause the extrusion of zinc from nucleocapsid protein NCp7 (expressed as % relative to control).

[2] = CEM cell assay, toxicity (growth inhibition); type: cell-based; conditions: human, cem cells; Toxic concentration which inhibits the growth of cells 50% relative to control; read-out: CEM Cell Assay TC50
Experimental: T4 lymphocytes (CEM cell line) are exposed to HIV at a virus to cell ratio approximately 0.05, and plated along with noninfected control cells in 96-well microliter plates. Candidate agent is dissolved in dimethyl sulfoxide (unless otherwise noted), then diluted 1:200 in cell culture medium. Further dilutions (half-log10) are prepared before adding to an equal volume of medium containing either infected or noninfected cells. Cultures are incubated at 37° in a 5% carbon dioxide atmosphere for 6 or 7 days. The tetrazolium salt, XTT, is added to all wells, and cultures are incubated to allow formazan color development by viable cells J. National Cancer Institute, 1989;81:577-586. Individual wells are analyzed spectrophotometrically to quantitate formazan production, and in addition are viewed microscopically for detection of viable cells confirmation of protective activity. Drug-tested virus-infected cells are compared with drug-treated noninfected cells and with other appropriate controls (untreated infected and untreated noninfected cells, drug-contain wells without cells, etc.) on the same plate. Data are reviewed in comparison with other tests done at the same time and a determination about activity is made.

[3] = system: HIV; assay: CEM cell assay, anti-HIV activity (XTT, protection from viral cytopathic effects); type: cell-based; conditions: Human immunodeficiency virus 1, CCRF-CEM; Effective concentration which protects cells from viral cytopathic effects
Excerpt: The test systems utilized to establish the cellular antiviral activity of the isothiazolones of Formula I are well recognized in the art and are routinely employed for such purpose. For example, the assay utilized to evaluate the compounds activity against the HIV virus is that employed by the U.S. National Cancer Institute as described by Weislow O. S., et al., J. Natl. Cancer Inst., 1989;81:577-586, incorporated herein by reference.
The procedure is designed to detect agents acting at any stage of the virus reproductive cycle. The assay basically involves the killing of T4 lymphocytes by HIV. Small amounts of HIV are added to cells, and at least two complete cycles of virus reproduction are necessary to obtain the required cell killing. Agents which interact with virions, cells, or virus gene-products to interfere with viral activities will protect cells from cytolysis. The system is automated in several features to accommodate large numbers of candidate agents, and is generally designed to detect anti-HIV activity. However, compounds which degenerate or are rapidly metabolized in the culture conditions may not show activity in this screen.
Yet another test system employed to determine antiviral activity is called the CEM cell assay.
T4 lymphocytes (CEM cell line) are exposed to HIV at a virus to cell ratio approximately 0.05, and plated along with noninfected control cells in 96-well microliter plates.
Candidate agent is dissolved in dimethyl sulfoxide (unless otherwise noted), then diluted 1:200 in cell culture medium. Further dilutions (half-log10) are prepared before adding to an equal volume of medium containing either infected or noninfected cells.
Cultures are incubated at 37° in a 5% carbon dioxide atmosphere for 6 or 7 days. The tetrazolium salt, XTT, is added to all wells, and cultures are incubated to allow formazan color development by viable cells J. National Cancer Institute, 1989;81:577-586. Individual wells are analyzed spectrophotometrically to quantitate formazan production, and in addition are viewed microscopically for detection of viable cells confirmation of protective activity.
Drug-tested virus-infected cells are compared with drug-treated noninfected cells and with other appropriate controls (untreated infected and untreated noninfected cells, drug-contain wells without cells, etc.) on the same plate. Data are reviewed in comparison with other tests done at the same time and a determination about activity is made.

[4] = target: T2, rabbit reticulocyte 15-LO (Oryctolagus cuniculus, UniProt P12530); assay: Colorimetric Assay of 15-LO Inhibition; type: biochemical; conditions: colorimetric method
T2 construct: rabbit reticulocyte 15-LO; from tissue; host or cells: rabbit reticulocytes
T2 sequence (P12530 1-663): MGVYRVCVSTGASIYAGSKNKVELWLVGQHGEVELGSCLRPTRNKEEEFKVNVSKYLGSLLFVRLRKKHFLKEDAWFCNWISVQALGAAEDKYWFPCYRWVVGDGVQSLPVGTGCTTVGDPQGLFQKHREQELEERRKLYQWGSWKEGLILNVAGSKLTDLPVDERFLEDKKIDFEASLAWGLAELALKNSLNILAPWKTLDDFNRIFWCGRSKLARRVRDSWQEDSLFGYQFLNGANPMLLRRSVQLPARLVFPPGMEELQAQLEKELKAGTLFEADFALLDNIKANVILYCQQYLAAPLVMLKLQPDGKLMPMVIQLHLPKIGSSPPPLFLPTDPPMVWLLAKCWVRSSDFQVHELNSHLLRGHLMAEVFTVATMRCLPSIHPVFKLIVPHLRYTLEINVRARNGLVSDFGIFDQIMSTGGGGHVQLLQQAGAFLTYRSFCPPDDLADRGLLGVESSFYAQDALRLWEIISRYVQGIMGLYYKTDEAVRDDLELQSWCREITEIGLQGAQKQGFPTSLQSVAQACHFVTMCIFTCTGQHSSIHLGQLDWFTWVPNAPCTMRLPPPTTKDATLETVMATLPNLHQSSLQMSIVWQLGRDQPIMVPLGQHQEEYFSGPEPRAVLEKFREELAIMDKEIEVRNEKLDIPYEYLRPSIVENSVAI
Experimental: (§1) The isothiazolones of Formula I are also effective for treating inflammation and atherosclerosis. A characteristic feature of atherosclerosis is the accumulation of cholesteryl ester engorged from foam cells. Foam cells are derived from circulating monocytes which invade artery walls in response to hypercholesterolemia, and mature into tissue macrophages. […] Specifically, representative compounds were evaluated by the methods described by Auerbach, et al., Analytical Biochemistry, 1992;201:375-380. Two in vitro assays were utilized, both utilizing rabbit reticulocyte 15-LO, and linoleic acid as substrate, to enzymatically produce a peroxide oxidation product known as 13(S)-HPODE. N-Benzoyl leucomethylene blue was utilized as a colorimetric reagent for detection and quantification of the peroxide formation. Also, HPLC was utilized to quantify the oxidation following incubation at 4° C. for 10 minutes.
(§2) Table 3 gives the concentration of compound required to inhibit 50% of the activity of 15-LO (IC50) when measured by the HPLC method of Auerbach, et al. Table 4 gives the percent inhibition of 15-LO activity when evaluated by the colorimetric method.

[5] = target: T2, rabbit reticulocyte 15-LO; assay: HPLC Assay of 15-LO Inhibition; type: biochemical; conditions: HPLC method; linoleic acid substrate, 4° C., 10 minutes
Experimental: as §1, §2

Compound	% Zn Extrusion Relative to Control [1] [%]	IC50 [5] [µM]	further results
CC[C@H](C)[C@@H](C(=O)O)n1sc2ccccc2c1=O [Example 2, [S-(R*,R*)]-3-Methyl-2-(3-oxo-3h-benzo[d]isothiazol-2-yl)pentanoic acid]	30		CC50 [2]: > 100 µM; EC50 [3]: 14 µM
CC(=O)NS(=O)(=O)c1ccc(-n2sc3ccccc3c2=O)cc1 [Example 3, N-Acetyl-4-(3-oxo-3h-benzo[d]isothiazol-2-yl)-benzenesulfonamide]			inhibition at 10 µM [4]: 75%
O=C(O)Cn1sc2ccccc2c1=O [Example 13, 2-(3-Oxo-3h-benzo[d]isothiazol-2-yl) acetic acid]	75		
CC(C)C(C(=O)O)n1sc2ccccc2c1=O (centres unmarked) [Example 14, 3-Methyl-2-(3-oxo-3h-benzo[d]isothiazol-2-yl)-butanoic acid]	71		CC50 [2]: > 100 µM; EC50 [3]: 21 µM
O=c1c2ccccc2sn1-c1ccccc1 [Example 15, 2-Phenyl-3-oxo-3h-benz[d]isothiazole]	97		
O=C(O)CCCn1sc2ccccc2c1=O [Example 17, 4-(3-Oxo-2-h-benzo[d]isothiaz-2-yl) butanoic acid]	78		CC50 [2]: > 100 µM; EC50 [3]: 5.8 µM
Cc1ccnc(-n2sc3ccccc3c2=O)c1 [Example 18, 2-(4-Methylpyridin-2-yl)-3-oxo-3h-benzo[d]isothiazole]	100		
CCN(CC)CCn1sc2nc(-c3ccccc3)ncc2c1=O [Example 21, 2-[2-(Diethylamino)ethyl]-6-phenyl-isothiazolo[5,4-d] pyrimidin-3(2H)-one]			inhibition at 10 µM [4]: 95%
CN(C)c1ncc2c(=O)n(Cc3ccccn3)sc2n1 [Example 23, 6-(Dimethylamino)-2-(2-pyridinylmethyl)isothiazolo [5,4-d]pyrimidin-3-(2H)-one]		0.4	
O=c1c2cnc(-c3ccccc3)nc2sn1Cc1ccccc1 [Example 24, 2-Benzyl-6-phenyl-isothiazolo[5,4-d]pyrimidin-3-one]		0.3	
O=C(O)Cc1ccc(-n2sc3ccccc3c2=O)cc1 [Example 25, 4-(3-Oxo-3h-benz-[d]isothiazol-2-yl)-phenyl acetic acid]	89		CC50 [2]: 69 µM; EC50 [3]: 5.8 µM
O=c1c2cnc(-c3ccccc3)nc2sn1CCN1CCOCC1 [Example 27, 2-(2-Morpholin-4-yl-ethyl)-6-phenyl-isothiazolo[5,4-d) pyrimidin-3-one]		0.27	
O=c1c2cnc(-c3ccccc3)nc2sn1CCc1ccccc1 [Example 28, 2-Phenethyl-6-phenyl-isothiazolo[5,4-d]pyrimidin-3-one]		0.76	
O=c1c2cnc(-c3ccccc3)nc2sn1Cc1ccccn1 [Example 29, 6-phenyl-2-pyridin-2-ylmethyl-isothiazolo[5,4-d] pyrimidin-3-one]		0.39	
O=c1c2cnc(-c3ccccc3)nc2sn1CCc1ccccn1 [Example 30, 6-phenyl-2-(2-pyridin-2-yl-ethyl)-isothiazolo[5,4-d] pyrimidin-3-one]		0.29	
O=c1c2cnc(N3CCCCC3)nc2sn1CCc1ccccn1 [Example 31, 6-Piperidin-1-yl-2-(2-pyridin-2-yl-ethyl)-isothiazolo [5,4-d]pyrimidin-3-one]		1.3	
O=c1[nH]sc2nc(N3CCCCC3)ncc12 [Example 32, 6-Piperidin-1-yl-isothiazolo[5,4-d]pyrimidin-3-one]		3.2	
O=c1c2cnc(N3CCOCC3)nc2sn1CCN1CCCCC1 [Example 33, 6-Morpholin-4-yl-2-(2-piperidin-1-yl-ethyl)-isothiazolo [5,4-d]pyrimidin-3-one]		0.12	
CN(C)c1ncc2c(=O)n(CCc3ccccn3)sc2n1 [Example 34, 6-Dimethylamino-2-(2-pyridin-2-yl-ethyl)-isothiazolo [5,4-d]pyrimidin-3-one]		1.7	
CN(C)c1ncc2c(=O)n(CCN3CCCCC3)sc2n1 [Example 35, 6-Dimethylamino-2-(2-piperidin-1-yl-ethyl)-isothiazolo [5,4-d]pyrimidin-3-one]		0.16	
NS(=O)(=O)c1ccc(NC(=O)c2ccccc2S)cc1 [Preparation 29, 2-Mercapto-N-(4-sulfamoylphenyl)benzamide]	5.8		
